Test results: PubChem BioAssay (NCI)
“And” between values parts separate entries of the source, which are not always exact repeats. Equal values may be shown once.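 96-well plates; 48 h exposure; 5 concentrations. Endpoints by linear interpolation between flanking doses. Not reached: highest tested concentration assigned. GI50: concentration for 50% inhibition of growth. TGI is the concentration that stops growth completely.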

Columns and labels:
Assay in all cases: NCI-60 cell line screen, 48 h
LXFL 529 NSCLC = system: LXFL 529 NSCLC
KM20L2 colon = system: KM20L2 colon
M19-MEL melanoma = system: M19-MEL melanoma
SNB-78 CNS = system: SNB-78 CNS
HCT-116 colon = system: HCT-116 colon
HL-60(TB) leukemia = system: HL-60(TB) leukemia
HOP-18 NSCLC = system: HOP-18 NSCLC
786-0 renal = system: 786-0 renal
DMS 114 small cell lung = system: DMS 114 small cell lung
HT29 colon = system: HT29 colon
DMS 273 small cell lung = system: DMS 273 small cell lung

SMILES | TGI (LXFL 529 NSCLC) | TGI (KM20L2 colon) | TGI (M19-MEL melanoma) | TGI (SNB-78 CNS) | TGI (HCT-116 colon) | TGI (HL-60(TB) leukemia) | TGI (HOP-18 NSCLC) | TGI (786-0 renal) | TGI (DMS 114 small cell lung) | TGI (HT29 colon) | TGI (DMS 273 small cell lung) | GI50 (KM20L2 colon) | GI50 (HL-60(TB) leukemia) | GI50 (HOP-18 NSCLC)
CCN(CC)CC(=N)N(CC)c1ccccc1 | > 100 µM | > 100 µM | > 100 µM | > 100 µM | > 100 µM | > 100 µM | > 100 µM | > 100 µM | > 100 µM | – | – | – | – | –
COc1ccc(N2C(=O)C3c4[nH]c5ccccc5c4C4CCCCC4C3C2=O)cc1 (stereo unspecified) | 84.9 µM | > 100 µM | > 100 µM | 12.1 µM | 22 µM | 55.1 µM | 67.7 µM | 23.8 µM | > 100 µM | > 100 µM | 23.9 µM | – | – | –
O=C1CSc2cc([N+](=O)[O-])ccc2N1 | > 100 µM | > 100 µM | > 100 µM | > 100 µM | > 100 µM | – | > 100 µM | > 100 µM | > 100 µM | > 100 µM | > 100 µM | – | – | –
C/C=C(/C)C(=O)O[C@H]1[C@H](O)CC(c2ccc3c(c2O)C(O)=C2C(=O)C4(OC)C(O)=C(C(N)=O)C(=O)[C@H](CC(=O)c5ccccc5O)C4CC2[C@@]3(C)OC)O[C@@H]1C (stereo partly specified) | 0.973 µM | 0.0623 µM | 0.768 µM | – | 0.0262 µM and 0.0189 µM | – | 3.07 µM | 1.43 µM and 1.35 µM | 0.0292 µM | 1.19 µM and 0.255 µM | – | – | – | –
Cn1c(=O)c2/c(n(C)c1=O)=N\C=c1\c(=O)n(C)c(=O)n(C)\c1=N\C=2 | > 100 µM | > 100 µM | > 100 µM | > 100 µM | > 100 µM | > 100 µM | > 100 µM | > 100 µM | > 100 µM | > 100 µM | – | – | – | –
CC(=O)[CH-]C(=O)c1ccccc1.CC(=O)[CH-]C(=O)c1ccccc1.CC[O-].O=C1c2ccccc2C(=O)c2c1ccc(O)c2[O-].[Ti+4] | > 100 µM | > 100 µM | 80.2 µM | – | > 100 µM | 56.6 µM | 88.3 µM | > 100 µM | – | > 100 µM | > 100 µM | 80.5 µM | 19.6 µM | 23.1 µM
O=S1Nc2c(Cl)cc(Cl)c(Cl)c2S1 (stereo unspecified) | > 100 µM | > 100 µM | > 100 µM | > 100 µM | > 100 µM | > 100 µM | > 100 µM | > 100 µM | > 100 µM | > 100 µM | > 100 µM | – | – | –
C/C=N\N1C(=O)c2ccccc2C1=O | > 100 µM | > 100 µM | > 100 µM | > 100 µM | > 100 µM | > 100 µM | > 100 µM | > 100 µM | > 100 µM | > 100 µM | > 100 µM | – | – | –
N#CCC(=O)N1CCCCCCC1 | > 100 µM | > 100 µM | – | > 100 µM | > 100 µM | 78 µM | – | > 100 µM | 91.7 µM | > 100 µM | > 100 µM | – | – | –
O=c1oc2ccccc2c(O)c1C(C/C(CCN1CCCC1)=N\Nc1ccccc1)c1ccccc1 (stereo unspecified) | > 100 µM | > 100 µM | > 100 µM | > 100 µM | > 100 µM | 60 µM | > 100 µM | > 100 µM | – | > 100 µM | – | – | – | –
CCc1cccc(C)c1NC(=O)CC1C(=O)Nc2ccccc2S1(=O)=O (stereo unspecified) | 37 µM | 34.2 µM | 38.9 µM | 53.7 µM | 35.4 µM | 40.2 µM | – | 31.5 µM | 34.1 µM | 36.4 µM | 25 µM | – | – | –
NC(CSSCC(N)Cc1ccccc1)Cc1ccccc1 (stereo unspecified) | > 100 µM | > 100 µM | > 100 µM | > 100 µM | > 100 µM | 74.4 µM | – | > 100 µM | > 100 µM | > 100 µM | – | – | – | –
COc1ccc2c(c1)OC[C@@H]1c3cc(O)c(OCc4ccccc4)cc3O[C@H]21 | 74.9 µM | 97.2 µM | 95.5 µM | 92.3 µM | > 100 µM | 52 µM | > 100 µM | > 100 µM | 82.6 µM | > 100 µM | > 100 µM | – | – | –
O=C1/C(=C/c2ccc(Br)cc2)CCC/C1=C\c1ccc(Br)cc1 | 14.7 µM | > 100 µM | 32.9 µM | 58.3 µM | 3.1 µM | 13.5 µM | 78.6 µM | 33.8 µM | 38.7 µM | 4.27 µM | 15.7 µM | – | – | –
O=C1NCCS(=O)(=O)N2CCC[C@@H]12 | > 100 µM | > 100 µM | > 100 µM | > 100 µM | > 100 µM | > 100 µM | > 100 µM | > 100 µM | > 100 µM | > 100 µM | – | – | – | –
CC1(C)N=C(c2ccccn2)C(c2ccccn2)=NC1(C)C | > 100 µM | > 100 µM | > 100 µM | > 100 µM | > 100 µM | > 100 µM | – | > 100 µM | > 100 µM | > 100 µM | > 100 µM | – | – | –
